Results published in patent US7247634B2, “Rifamycin derivatives effective against drug-resistant microbes” (Cumbre Pharmaceuticals Inc., priority 2004, dated 2007).
In brackets after ≈: the same amount, converted by molar mass.

Tests used:
Format in all cases: cell-based
[1] = system: Mycobacterium smegmatis ATCC700084; assay: MIC, microbroth dilution (NCCLS); settings: Mycolicibacterium smegmatis, rifS strain, Middlebrook Broth plus ADC Enrichment, 37° C., read-out: Antimicrobial activity (MIC)
[2] = system: Streptococcus pyogenes ATCC19615; assay: MIC, microbroth dilution (NCCLS); settings: rifS strain, THY Broth, 37° C., read-out: Antimicrobial activity (MIC)
[3] = system: Streptococcus pneumoniae ATCC6303; assay: MIC, microbroth dilution (NCCLS); settings: rifS strain, THY Broth with 1 mg/mL catalase, 5% CO2, 37° C., read-out: Antimicrobial activity (MIC)
[4] = system: Staphylococcus aureus EN1252a gyrA^S84L grlA^S80F; assay: microbe, parasite or virus in culture; settings: read-out: Antimicrobial activity (MIC)
Description: (§1) Representative compounds were assayed for antimicrobial activity as follows: Minimum Inhibitory Concentrations (“MICs”) were determined by the microbroth dilution method as per NCCLS guidelines (National Committee for Clinical Laboratory Standards. 2000. Methods for dilution antimicrobial susceptibility tests for bacteria that grow aerobically, 5th ed. M7-A5. National Committee for Clinical Laboratory Standards, Wayne, Pa.), except that all growth incubations were conducted at 37° C. Bacterial cultures were tested in the following bacteriological media: S. aureus, S. epidermidis, and E. coli in Cation-Adjusted Mueller-Hinton Broth, S. pneumoniae in THY Broth supplemented with 1 mg/mL catalase under 5% CO2 atmosphere, S. pyogenes in THY Broth, E. faecalis in BHI Broth, H. influenzae in BHI Broth supplemented with 0.75 μL of 1 mg/mL NAD and 150 μL of 1 mg/ml hematin per 5 mL, and M. smegmatis in Middlebrook Broth plus ADC Enrichment.
(§2) S. aureus ATCC 29213 RpoB^H418Y is a rifampin-resistant strain with a mutation in RNA polymerase, the biological target of rifamycin antibiotics. […] S. aureus EN1252a gyrA^S84L grlA^S80F is a quinolone-resistant strain due to double mutations to DNA gyrase and topoisomerase IV, the two biological targets for quinolone antibiotics.

[5] = system: Staphylococcus aureus ATCC29213 rpoB^D417Y; assay: microbe, parasite or virus in culture; settings: ATCC29213, read-out: Antimicrobial activity (MIC)
Description: as §1, §2

[6] = system: Staphylococcus aureus ATCC29213 rpoB^H418Y; assay: microbe, parasite or virus in culture; settings: ATCC29213, read-out: Antimicrobial activity (MIC)
Description: as §1, §2

[7] = system: Staphylococcus epidermidis ATCC12228; assay: MIC, microbroth dilution (NCCLS); settings: rifS strain, Cation-Adjusted Mueller-Hinton Broth, 37° C., read-out: Antimicrobial activity (MIC)
[8] = system: Escherichia coli ATCC25922; assay: MIC, microbroth dilution (NCCLS); settings: rifS strain, Cation-Adjusted Mueller-Hinton Broth, 37° C., read-out: Antimicrobial activity (MIC)
[9] = system: Enterococcus faecalis ATCC29212; assay: MIC, microbroth dilution (NCCLS); settings: rifS strain, BHI Broth, 37° C., read-out: Antimicrobial activity (MIC)
[10] = system: Haemophilus influenzae ATCC10211; assay: MIC, microbroth dilution (NCCLS); settings: rifS strain, BHI Broth with NAD and hematin, 37° C., read-out: Antimicrobial activity (MIC)
[11] = system: Staphylococcus aureus ATCC29213; assay: MIC, microbroth dilution (NCCLS); settings: rifS strain, Cation-Adjusted Mueller-Hinton Broth, 37° C., read-out: Antimicrobial activity (MIC)

| Structure (SMILES) | MIC [1] [µg/mL] | MIC [2] [µg/mL] | MIC [3] [µg/mL] | MIC [4] [µg/mL] | MIC [5] [µg/mL] | MIC [6] [µg/mL] | MIC [7] [µg/mL] | MIC [8] [µg/mL] | MIC [9] [µg/mL] | MIC [10] [µg/mL] | MIC [11] [µg/mL] |
| --- | --- | --- | --- | --- | --- | --- | --- | --- | --- | --- | --- |
| COc1c(N2CCCC(NC(=O)C3CCN(C4=C5NC(=O)/C(C)=C\C=C\[C@H](C)[C@H](O)[C@@H](C)[C@@H](O)[C@@H](C)[C@H](OC(C)=O)[C@H](C)[C@@H](OC)/C=C/O[C@@]6(C)Oc7c(C)c(O)c(c(c7C6=O)C4=O)C5=O)CC3)C2)c(F)cc2c(=O)c(C(=O)O)cn(C3CC3)c12 (mixture of isomers) [Example 52] | 0.5 to 64 | 0.008 to 0.063 (≈ 0.00678 to 0.0534 µM) | 0.008 to 0.125 (≈ 0.00678 to 0.106 µM) | 0.004 to 0.5 (≈ 0.00339 to 0.424 µM) | 0.06 to 32 (≈ 0.0508 to 27.1 µM) | 0.06 to 16 (≈ 0.0508 to 13.6 µM) | 0.008 to 0.063 (≈ 0.00678 to 0.0534 µM) | 0.125 to 8 (≈ 0.106 to 6.78 µM) | 2 to 32 (≈ 1.69 to 27.1 µM) | 0.125 to 2 (≈ 0.106 to 1.69 µM) | 0.004 to 0.5 (≈ 0.00339 to 0.424 µM) |
| CO[C@H]1/C=C/O[C@@]2(C)Oc3c(C)c(O)c4c(c3C2=O)C(=O)C(N2CCN(C3CCN(c5nc6c(cc5F)c(=O)c(C(=O)O)cn6-c5ccc(F)cc5F)C3)CC2)=C(NC(=O)/C(C)=C\C=C\[C@H](C)[C@H](O)[C@@H](C)[C@@H](O)[C@@H](C)[C@H](OC(C)=O)[C@@H]1C)C4=O (mixture of isomers) [Example 54] | 0.5 to 64 | 0.008 to 0.063 (≈ 0.00685 to 0.054 µM) | 0.008 to 0.125 (≈ 0.00685 to 0.107 µM) | 0.004 to 0.5 (≈ 0.00343 to 0.428 µM) | 0.06 to 32 (≈ 0.0514 to 27.4 µM) | 0.06 to 16 (≈ 0.0514 to 13.7 µM) | 0.008 to 0.063 (≈ 0.00685 to 0.054 µM) | 0.125 to 8 (≈ 0.107 to 6.85 µM) | 2 to 32 (≈ 1.71 to 27.4 µM) | 0.125 to 2 (≈ 0.107 to 1.71 µM) | 0.004 to 0.5 (≈ 0.00343 to 0.428 µM) |
| COc1c(N2CCC(C3(N4CCN(C5=C6NC(=O)/C(C)=C\C=C\[C@H](C)[C@H](O)[C@@H](C)[C@@H](O)[C@@H](C)[C@H](OC(C)=O)[C@H](C)[C@@H](OC)/C=C/O[C@@]7(C)Oc8c(C)c(O)c(c(c8C7=O)C5=O)C6=O)CC4)CC3)C2)c(F)cc2c(=O)c(C(=O)O)cn(C3CC3)c12 (mixture of isomers) [Example 56, (R/S)-3-{4-[1-(3-Carboxy-1-cyclopropyl-6-fluoro-8-methoxy-4-oxo-1,4-dihydroquinoline-7-yl)-pyrrolidin-3-yl-cyclopropyl]-piperazin-1-yl}-rifamycin S] | 0.5 to 64 | 0.008 to 0.063 (≈ 0.00687 to 0.0541 µM) | 0.008 to 0.125 (≈ 0.00687 to 0.107 µM) | 0.004 to 0.5 (≈ 0.00344 to 0.429 µM) | 0.06 to 32 (≈ 0.0515 to 27.5 µM) | 0.06 to 16 (≈ 0.0515 to 13.7 µM) | 0.008 to 0.063 (≈ 0.00687 to 0.0541 µM) | 0.125 to 8 (≈ 0.107 to 6.87 µM) | 2 to 32 (≈ 1.72 to 27.5 µM) | 0.125 to 2 (≈ 0.107 to 1.72 µM) | 0.004 to 0.5 (≈ 0.00344 to 0.429 µM) |
| CO[C@H]1/C=C/O[C@@]2(C)Oc3c(C)c(O)c4c(c3C2=O)C(=O)C(N2CCC(N(C)C3(C5CCN(c6nc7c(cc6F)c(=O)c(C(=O)O)cn7-c6ccc(F)cc6F)C5)CC3)CC2)=C(NC(=O)/C(C)=C\C=C\[C@H](C)[C@H](O)[C@@H](C)[C@@H](O)[C@@H](C)[C@H](OC(C)=O)[C@@H]1C)C4=O (mixture of isomers) [Example 58] | 0.5 to 64 | 0.008 to 0.063 (≈ 0.00648 to 0.051 µM) | 0.008 to 0.125 (≈ 0.00648 to 0.101 µM) | 0.004 to 0.5 (≈ 0.00324 to 0.405 µM) | 0.06 to 32 (≈ 0.0486 to 25.9 µM) | 0.06 to 16 (≈ 0.0486 to 13 µM) | 0.008 to 0.063 (≈ 0.00648 to 0.051 µM) | 0.125 to 8 (≈ 0.101 to 6.48 µM) | 2 to 32 (≈ 1.62 to 25.9 µM) | 0.125 to 2 (≈ 0.101 to 1.62 µM) | 0.004 to 0.5 (≈ 0.00324 to 0.405 µM) |
| CON=C1CN(c2nc3c(cc2F)c(=O)c(C(=O)O)cn3C2CC2)CC1CNC1CCN(C2=C3NC(=O)/C(C)=C\C=C\[C@H](C)[C@H](O)[C@@H](C)[C@@H](O)[C@@H](C)[C@H](OC(C)=O)[C@H](C)[C@@H](OC)/C=C/O[C@@]4(C)Oc5c(C)c(O)c(c(c5C4=O)C2=O)C3=O)CC1 (mixture of isomers) [Example 59, (R/S)-3-{4-[1-(3-Carboxy-1-cyclopropyl-6-fluoro-4-oxo-1,4-dihydro-1-[1,8]naphthyridine-7-yl)-3-methoxyiminopyrrolidin-4-ylmethylamino]-piperidin-1-yl}rifamycin S] | 0.5 to 64 | 0.008 to 0.063 (≈ 0.00686 to 0.054 µM) | 0.008 to 0.125 (≈ 0.00686 to 0.107 µM) | 0.004 to 0.5 (≈ 0.00343 to 0.429 µM) | 0.06 to 32 (≈ 0.0514 to 27.4 µM) | 0.06 to 16 (≈ 0.0514 to 13.7 µM) | 0.008 to 0.063 (≈ 0.00686 to 0.054 µM) | 0.125 to 8 (≈ 0.107 to 6.86 µM) | 2 to 32 (≈ 1.71 to 27.4 µM) | 0.125 to 2 (≈ 0.107 to 1.71 µM) | 0.004 to 0.5 (≈ 0.00343 to 0.429 µM) |
| CO[C@H]1/C=C/O[C@@]2(C)Oc3c(C)c(O)c4c(c3C2=O)C(=O)C(N2CCN(c3cc5c(cc3F)c(=O)c(C(=O)O)cn5C3CC3)CC2)=C(NC(=O)/C(C)=C\C=C\[C@H](C)[C@H](O)[C@@H](C)[C@@H](O)[C@@H](C)[C@H](OC(C)=O)[C@@H]1C)C4=O [Example 4, 3-[4-(3-Carboxy-1-cyclopropyl-6-fluoro-4-oxo-1,4-dihydroquinolin-7-yl)piperazin-1-yl]rifamycin S] | 0.5 to 64 | 0.008 to 0.063 (≈ 0.0078 to 0.0615 µM) | 0.008 to 0.125 (≈ 0.0078 to 0.122 µM) | 0.004 to 0.5 (≈ 0.0039 to 0.488 µM) | 0.06 to 32 (≈ 0.0585 to 31.2 µM) | 0.06 to 16 (≈ 0.0585 to 15.6 µM) | 0.008 to 0.063 (≈ 0.0078 to 0.0615 µM) | 0.125 to 8 (≈ 0.122 to 7.8 µM) | 2 to 32 (≈ 1.95 to 31.2 µM) | 0.125 to 2 (≈ 0.122 to 1.95 µM) | 0.004 to 0.5 (≈ 0.0039 to 0.488 µM) |
